Tests used:
[1] = in vitro solubility assay of urea in water at 39° C.; format: physicochemical; details: 50 mg urea in 50 ml water at 39° C.
Description: The coating layers consisted of rosin only or a combination of primer and rosin. […] Fifty mg urea was incubated in 50 ml water at 39° C. Samples (1 ml) were taken after 1, 2, 4 and 7.5 h incubation. Urea concentration was estimated by spectrophotometry.

[2] = feeding trial in sheep fitted with rumen cannulae, rumen ammonia profile; format: in vivo
Description: Samples consisted of prilled urea-cement matrix coated with a primer of the type oxychloride cement followed by 3 or 4 layers of rosin and calcium carbonate.
The experiment was carried out with sheep fitted with rumen cannulae. Sheep were fed on a control diet of 63% grass hay and 37% of unmollassed sugarbeet pulp. Control diet was then supplemented with 1.3% urea (or urea equivalent in the is form of a controlled-release product) and added directly into the rumen to avoid excess chewing, which is known to be more intense in sheep compared to cattle. Data from the feeding trials are described in Table 4 and FIG. 3.

Urea solubilized (%) ([1]; incubation time 1 h): 98.9% | Urea solubilized (%) ([1]; incubation time 2 h): 100.1% | Urea solubilized (%) ([1]; incubation time 4 h): 99.3% | Urea solubilized (%) ([1]; incubation time 7.5 h): 100.6%
Compound: NC(N)=O [Urea, urea]
Rumen ammonia ([2]; 0 h after feeding, diet supplemented with 1.3% urea or urea equivalent, added directly into the rumen): 8.8 mg N/100 ml | Rumen ammonia ([2]; 1 h after feeding, 1.3% urea or urea equivalent into the rumen): 33.3 mg N/100 ml | Rumen ammonia ([2]; 2 h after feeding, 1.3% urea or urea equivalent into the rumen): 25.0 mg N/100 ml | Rumen ammonia ([2]; 4 h after feeding, 1.3% urea or urea equivalent into the rumen): 10.7 mg N/100 ml | Rumen ammonia ([2]; 8 h after feeding, 1.3% urea or urea equivalent into the rumen): 6.6 mg N/100 ml | Rumen ammonia ([2]; 12 h after feeding, 1.3% urea or urea equivalent into the rumen): 9.0 mg N/100 ml

From US20040074272A1, “Controlled release urea product and method of preparing said product” (priority 2001, published 2004)
